Assay results published in patent publication US10022315B2, “Oral composition for reinforcing skin tolerance following topical administration of a retinoid compound” (NUTRICOS TECHNOLOGIES, priority 2012, dated 2018).

Tests used:
Format in all cases: in vivo, human
menopausal women [1] = test: Clinical study: evaluation by the patients of skin signs associated with the side effects of retinoic acid (none/mild/moderate/severe, on the face)
Method: (§1) The beneficial effect, in terms of reinforcing skin tolerance, of the food supplement of example 1 was assessed in a clinical study carried out according to the protocol which follows:
(§2) The study performed under dermatological control (30 dermatologists) was carried out in menopausal women (n=203), from 50 to 66 years old and showing moderate signs of photo-aging on the face.
(§3) These women were divided up into two treatment groups: • group 1 treated with 0.05% by weight retinoic acid, relative to the total weight of the composition, for 6 months at a rate of one application per day (control group), • group 2 treated with 0.05% by weight retinoic acid, relative to the total weight of the composition, for 6 months at a rate of one application per day, combined with daily intake of the food supplement as described in example 1. 3.1 Evaluation of Symptoms
(§4) The symptoms associated with skin tolerance were evaluated after 60, 120 and 180 days by, on the one hand, dermatologists and, on the other hand, by the subjects themselves.
During the last 2 months, have you experienced on the face

menopausal women [2] = test: Clinical study: overall evaluation of skin tolerance to the treatments by the dermatologists (questionnaire)
Method: as §1, §2, §3
(§5) Skin tolerance to the treatments was checked after 60, 120 and 180 days by means of questionnaires given to the dermatologists and the subjects participating in the study.
(§6) Tables 1 (evaluations by the dermatologists) and 2 (self-evaluation by the subjects) summarize the skin tolerance results obtained in groups 1 and 2. The results are expressed as of subjects, in reply to the following question: “do you consider thus far that the tolerance to the treatment is”. The possible replies were excellent, good, average and poor.

menopausal women [3] = test: Clinical study: overall evaluation of skin tolerance to the treatments by the subjects (questionnaire)
Method: as §1, §2, §3, §5, §6

menopausal women [4] = test: Clinical study: evaluation by dermatologists of skin signs associated with the side effects of retinoic acid (score 0-9, on the face); conditions: scale 0-9, face
Method: as §1, §2, §3, §4
Dermatologist Scoring Scale

With `CC1=C(/C=C/C(C)=C/C=C/C(C)=C/C(=O)O)C(C)(C)CCC1` [GROUP 1, retinoic acid] the “Desquamation, patients replying mild (Mi)” value (“Desquamation … (Mi)” for short) (menopausal women [1]; D60) was 41%, the “Desquamation, patients replying moderate (Mo)” value (“Desquamation … (Mo)” below) (menopausal women [1]; D60) was 21% and the “Desquamation, patients replying severe (S)” value (shortened to “Desquamation … (S)”) (menopausal women [1]; D60) was 1%. The “Redness, patients replying mild (Mi)” value (menopausal women [1]; D60) was 46%, the “Redness, patients replying moderate (Mo)” value (menopausal women [1]; D60) was 13% and the “Redness, patients replying severe (S)” value (menopausal women [1]; D60) was 0%. The “Signs of discomfort, patients replying mild (Mi)” value (“Signs of discomfort … (Mi)” below) (menopausal women [1]; D60) was 42%, the “Signs of discomfort, patients replying moderate (Mo)” value (from here on “Signs of discomfort … (Mo)”) (menopausal women [1]; D60) was 15% and the “Signs of discomfort, patients replying severe (S)” value (shortened to “Signs of discomfort … (S)”) (menopausal women [1]; D60) was 0%. For the same molecule, the “Tautness, patients replying mild (Mi)” value (menopausal women [1]; D60) was 49%, the “Tautness, patients replying moderate (Mo)” value (shortened to “Tautness … (Mo)”) (menopausal women [1]; D60) was 10% and the “Tautness, patients replying severe (S)” value (menopausal women [1]; D60) was 1%. The “Desquamation … (Mi)” value (menopausal women [1]; D120) was 42%, the “Desquamation … (Mo)” value (menopausal women [1]; D120) was 14% and the “Desquamation … (S)” value (menopausal women [1]; D120) was 0%. For the same molecule, the “Itching, patients replying mild (Mi)” value (menopausal women [1]; D120) was 42%, the “Itching, patients replying moderate (Mo)” value (menopausal women [1]; D120) was 7% and the “Itching, patients replying severe (S)” value (menopausal women [1]; D120) was 0%. For the same molecule, the “Redness, patients replying mild (Mi)” value (menopausal women [1]; D120) was 49%, the “Redness, patients replying moderate (Mo)” value (menopausal women [1]; D120) was 7% and the “Redness, patients replying severe (S)” value (menopausal women [1]; D120) was 1%. The “Signs of discomfort … (Mi)” value (menopausal women [1]; D120) was 35%, the “Signs of discomfort … (Mo)” value (menopausal women [1]; D120) was 13% and the “Signs of discomfort … (S)” value (menopausal women [1]; D120) was 0%. The “Tautness, patients replying mild (Mi)” value (menopausal women [1]; D120) was 43%, the “Tautness … (Mo)” value (menopausal women [1]; D120) was 8% and the “Tautness, patients replying severe (S)” value (menopausal women [1]; D120) was 0%. The “Desquamation … (Mi)” value (menopausal women [1]; D180) was 35%, the “Desquamation … (Mo)” value (menopausal women [1]; D180) was 8% and the “Desquamation … (S)” value (menopausal women [1]; D180) was 0%. The “Itching, patients replying mild (Mi)” value (menopausal women [1]; D180) was 35%, the “Itching, patients replying moderate (Mo)” value (menopausal women [1]; D180) was 4% and the “Itching, patients replying severe (S)” value (menopausal women [1]; D180) was 0%. The “Redness, patients replying mild (Mi)” value (menopausal women [1]; D180) was 35%, the “Redness, patients replying moderate (Mo)” value (menopausal women [1]; D180) was 6% and the “Redness, patients replying severe (S)” value (menopausal women [1]; D180) was 0%. The “Signs of discomfort … (Mi)” value (menopausal women [1]; D180) was 31%, the “Signs of discomfort … (Mo)” value (menopausal women [1]; D180) was 7% and the “Signs of discomfort … (S)” value (menopausal women [1]; D180) was 0%. For the same molecule, the “Tautness, patients replying mild (Mi)” value (menopausal women [1]; D180) was 35%, the “Tautness … (Mo)” value (menopausal women [1]; D180) was 7% and the “Tautness, patients replying severe (S)” value (menopausal women [1]; D180) was 1%. For the same molecule, the “Itching, patients replying mild (Mi)” value (menopausal women [1]; J60 (D60)) was 48%, the “Itching, patients replying moderate (Mo)” value (menopausal women [1]; J60 (D60)) was 15% and the “Itching, patients replying severe (S)” value (menopausal women [1]; J60 (D60)) was 0%. The “Tolerance to the treatment judged Average by the dermatologists, subjects” value (menopausal women [2]; D60) was 24%, the “Tolerance to the treatment judged Excellent by the dermatologists, subjects” value (menopausal women [2]; D60) was 15% and the “Tolerance to the treatment judged Good by the dermatologists, subjects” value (menopausal women [2]; D60) was 62%. For the same molecule, the “Tolerance to the treatment judged Poor by the dermatologists, subjects” value (menopausal women [2]; D60) was 0%, the “Tolerance to the treatment judged Average by the dermatologists, subjects” value (menopausal women [2]; D120) was 23% and the “Tolerance to the treatment judged Excellent by the dermatologists, subjects” value (menopausal women [2]; D120) was 20%. For the same molecule, the “Tolerance to the treatment judged Good by the dermatologists, subjects” value (menopausal women [2]; D120) was 58%, the “Tolerance to the treatment judged Poor by the dermatologists, subjects” value (menopausal women [2]; D120) was 0% and the “Tolerance to the treatment judged Average by the dermatologists, subjects” value (menopausal women [2]; D180) was 15%. For the same molecule, the “Tolerance to the treatment judged Excellent by the dermatologists, subjects” value (menopausal women [2]; D180) was 23%, the “Tolerance to the treatment judged Good by the dermatologists, subjects” value (menopausal women [2]; D180) was 63% and the “Tolerance to the treatment judged Poor by the dermatologists, subjects” value (menopausal women [2]; D180) was 0%. The “Tolerance to the treatment judged Average by the subjects, subjects” value (menopausal women [3]; D60) was 20%, the “Tolerance to the treatment judged Excellent by the subjects, subjects” value (menopausal women [3]; D60) was 18% and the “Tolerance to the treatment judged Good by the subjects, subjects” value (menopausal women [3]; D60) was 63%. For the same molecule, the “Tolerance to the treatment judged Poor by the subjects, subjects” value (menopausal women [3]; D60) was 0%, the “Tolerance to the treatment judged Average by the subjects, subjects” value (menopausal women [3]; D120) was 21% and the “Tolerance to the treatment judged Excellent by the subjects, subjects” value (menopausal women [3]; D120) was 25%. For the same molecule, the “Tolerance to the treatment judged Good by the subjects, subjects” value (menopausal women [3]; D120) was 54%, the “Tolerance to the treatment judged Poor by the subjects, subjects” value (menopausal women [3]; D120) was 1% and the “Tolerance to the treatment judged Average by the subjects, subjects” value (menopausal women [3]; D180) was 15%. For the same molecule, the “Tolerance to the treatment judged Excellent by the subjects, subjects” value (menopausal women [3]; D180) was 30%, the “Tolerance to the treatment judged Good by the subjects, subjects” value (menopausal women [3]; D180) was 53% and the “Tolerance to the treatment judged Poor by the subjects, subjects” value (menopausal women [3]; D180) was 2%. For the same molecule, the “Pruritus, mean score (dermatologists)” value (menopausal women [4]; D0) was 0.6, the “Sign of desquamation, mean score (dermatologists)” value (menopausal women [4]; D0) was 1.6 and the “Sign of redness, mean score (dermatologists)” value (menopausal women [4]; D0) was 1.2. For the same molecule, the “Sign of skin dryness, mean score (dermatologists)” value (menopausal women [4]; D0) was 3.2, the “Pruritus, mean score (dermatologists)” value (menopausal women [4]; D60) was 1.2 and the “Sign of desquamation, mean score (dermatologists)” value (menopausal women [4]; D60) was 1.8. The “Sign of redness, mean score (dermatologists)” value (menopausal women [4]; D60) was 1.6, the “Sign of skin dryness, mean score (dermatologists)” value (menopausal women [4]; D60) was 2.7 and the “Pruritus, mean score (dermatologists)” value (menopausal women [4]; D120) was 0.9. The “Sign of desquamation, mean score (dermatologists)” value (menopausal women [4]; D120) was 1.5, the “Sign of redness, mean score (dermatologists)” value (menopausal women [4]; D120) was 1.3 and the “Sign of skin dryness, mean score (dermatologists)” value (menopausal women [4]; D120) was 2.2. The “Pruritus, mean score (dermatologists)” value (menopausal women [4]; D180) was 0.6, the “Sign of desquamation, mean score (dermatologists)” value (menopausal women [4]; D180) was 1.1 and the “Sign of redness, mean score (dermatologists)” value (menopausal women [4]; D180) was 1.0. For the same molecule, the “Sign of skin dryness, mean score (dermatologists)” value (menopausal women [4]; D180) was 1.7.
